This note sets out measurements from PMC9011347, “Small-Molecule Inhibitors Targeting Lipolysis in Human Adipocytes” (Journal of the American Chemical Society, 2022).

The assay deals with T1, human ATGL (Homo sapiens, UniProt Q96AD5).
T1 construct: host or cells: Expi293 cells, crude lysate
T1 sequence (Q96AD5 1-504): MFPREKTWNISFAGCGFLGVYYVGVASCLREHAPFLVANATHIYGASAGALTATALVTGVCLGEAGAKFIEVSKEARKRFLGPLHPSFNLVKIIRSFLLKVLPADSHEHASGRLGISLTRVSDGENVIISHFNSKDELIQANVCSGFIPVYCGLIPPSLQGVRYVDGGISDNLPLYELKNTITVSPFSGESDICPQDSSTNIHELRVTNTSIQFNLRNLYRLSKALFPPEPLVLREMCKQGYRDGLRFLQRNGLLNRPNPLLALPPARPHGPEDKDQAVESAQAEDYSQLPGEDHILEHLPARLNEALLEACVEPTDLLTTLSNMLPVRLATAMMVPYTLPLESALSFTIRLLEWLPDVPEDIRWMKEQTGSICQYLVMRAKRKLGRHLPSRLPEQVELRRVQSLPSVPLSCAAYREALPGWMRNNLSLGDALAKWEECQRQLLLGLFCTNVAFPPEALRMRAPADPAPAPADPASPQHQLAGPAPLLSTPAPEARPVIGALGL
Briefly: TAG hydrolase assay, lysates of Expi293 cells overexpressing ATGL, purified CGI-58, radiolabeled triolein. The note with it: for Ki: NG-497 0.5 μM. In kind it is biochemical. The text has this:
We previously developed Atglistatin (Ai), a selective inhibitor of mouse ATGL,[31],[32] which is ineffective against human ATGL.[17] Ai acts as a competitive inhibitor targeting the minimal active domain of ATGL ranging from aa 1–254.[33] This domain is highly conserved in different mammalian species (∼90% identity, Table 1) and comprises the patatin-like domain, eponymous for all members of the patatin-like phospholipase domain-containing (PNPLA) protein family.[34] We first investigated the species selectivity of Ai by performing TAG hydrolase assays[35] with lysates from Expi293 cells expressing ATGL orthologues of different species. The activity of ATGL is strongly stimulated by the co-activator protein comparative gene identification-58 (CGI-58, also known as α/β hydrolase domain containing 5, ABHD5)[36] and can be suppressed by the inhibitory protein G0/G1 switch 2 (G0S2).[37] We therefore determined ATGL activity in the presence and absence of mouse CGI-58, mouse G0S2, and Ai. As shown in Figure 1a–i, all ATGL orthologues were expressed, enzymatically active, stimulated by mouse CGI-58, and inactivated by mouse G0S2. Ai inhibited mouse (Figure 1a), rat (Figure 1b), goat (Figure 1c), dog (Figure 1e), and marmoset ATGL (Figure 1f), but not pig (Figure 1d), rhesus monkey (Figure 1g), or human ATGL (Figure 1h).
To develop an inhibitor for human ATGL, we screened compounds synthesized in the course of the development of Ai.[31] Screenings were performed in the presence of purified CGI-58 using cell lysates of Expi293 cells overexpressing ATGL as a source of enzymatic activity and radiolabeled triolein as substrate as described above (Figure 1). […] In an iterative optimization process, which encompassed the synthesis and testing of >150 compounds (not shown), we varied the nature of the top aryl ring (Figure 2a). Replacement of the top phenyl group with a pyridine moiety (compound 2) led to a significant improvement in inhibitor efficacy (IC50 = 3 μM), which we interpret as a result from a smaller angle between the 1,3-arrangement of the aryl- and the ester-substituents due to the shorter C–N bond length within the pyridine group. […] The introduction of a methoxy residue at this position finally led to compound NG-497 showing an IC50 value of 1 μM.
Experimental details, materials, and methods
Expression of recombinant ATGL constructs and preparation of cell lysates. Expi293 cells were cultivated in Expi293 Expression Medium (GIBCO, Thermo Fisher Scientific, Waltham, USA) at standard conditions (37°C, 5% CO2, 95% humidified atmosphere, 125 rpm). DNA constructs containing ATGL from different species and chimeric ATGL variants in pcDNA3.1(+)myc-His C Vector were obtained from BioCat GmbH (Heidelberg, Germany). Cells were transfected with ExpiFectamine293 Transfection Kit (GIBCO) in Opti-Mem reduced serum medium (GIBCO) according to the manufacturer’s instructions. After 48 h, cells were harvested by centrifugation and washed three times with PBS. Cells were disrupted in buffer A (0.25 M sucrose, 1 mM EDTA, 1 mM dithiothreitol, 20µg/ml leupeptin, 2 µg/ml antipain, 1 µg/ml pepstatin, pH 7.0) by sonication (Virsonic 475, Virtis, Gardiner, USA). Nuclei and debris were removed by centrifugation at 1,000 g and 4°C for 10 min. Protein concentrations were determined using Bio-Rad protein assay (Bio-Rad 785, Bio-Rad Laboratories, Munich, Germany) using BSA as standard.
Expression and purification of mouse CGI-58. CGI-58 was expressed and purified as described 1. In brief, the coding sequence of mouse Cgi-58 was cloned into pHis-Sumo and co-transformed with the plasmid pTf16 expressing the chaperone Tig into E. coli BL21(DE3). Cells were cultured overnight at 37°C and 180 rpm in the presence of 40 µg/ml kanamycin and 34 µg/ml chloramphenicol. Thereafter, cells were transferred into fresh LB medium, grown until OD600 of 0.6, and expression was induced […]
by the addition of 0.5 mM IPTG. […]

For the molecule `CCOc1ccc(-c2cc(OC)cc(C(=O)OC(C)C)n2)cc1` [NG-497], where the note is “NG-497 50 μM, human ATGL”, the “inhibition of ATGL orthologue” value is recorded as “inactivates”. Where the note is “NG-497 100 μM”, the “inactivation of TAG hydrolase activity of ATGL (PNPLA2)” value is “inactivated”. Further, the “mechanism of inhibition (Lineweaver–Burk analysis)” value (increase of apparent Km, Vmax not affected) was “reversible and competitive inhibition”. For the same molecule, under “inhibition of TAG hydrolase activity of human ATGL, Expi293 lysates, purified CGI-58, radiolabeled triolein”, the midpoint of inhibition, the IC50, lay at 1000 nM. Also, the inhibitory constant (Ki) (commonly a measure of affinity in units of concentration, obtained from inhibition or displacement) (nonlinear regression (GraphPad Prism), Figure 2c) amounted to 490 ± 20 nM and the inhibition constant (Ki) (nonlinear regression, varying substrate concentration) was found to be 500 nM.
